According to article PMC9779571, “Guanidine Derivatives Containing the Chalcone Skeleton Are Potent Antiproliferative Compounds against Human Leukemia Cells” (International Journal of Molecular Sciences, 2022):
“And” between values parts separate entries of the source, which are not always exact repeats. Identical values can stand only once.

How the values were obtained:
[1] = test system: PBMC; assay: Annexin V-FITC/propidium iodide flow cytometry, PBMC; type: cell-based, human; conditions: 24 h; for annexin V-FITC positive cells with respect to control: 3 µM; for fold increase of annexin V-FITC positive cells with respect to control / annexin V-FITC positive cells: 10 µM; for annexin V-FITC positive cells: control 9.3%
Source text: (§1) U-937, HL-60, MOLT-3, NALM-6, and SK-MEL-1 cells were from DSMZ (German Collection of Microorganisms and Cell Cultures, Braunschweig, Germany). U-937/Bcl-2 cells were kindly provided by Dr. Jacqueline Bréard (INSERM U749, Faculté de Pharmacie Paris-Sud, Châtenay-Malabry, France). The U-937 is a pro-monocytic, human promyelocytic leukemia cell line that was isolated from a histiocytic lymphoma. HL-60 is a human acute myeloid leukemia cell line. MOLT-3 is a human acute lymphoblastic leukemia cell line. NALM-6 is a human B cell precursor leukemia. SK-MEL-1 is a human melanoma cell line growing singly or in clumps (occasional giant, polynucleated cell) in suspension. Cells were cultured in RPMI 1640 medium containing 10% (v/v) heat-inactivated fetal bovine serum, 100 μg/mL streptomycin, and 100 U/mL penicillin, incubated at 37 °C in a humidified atmosphere containing 5% CO2 as described. The doubling times of the cell lines were 24 h in HL-60, 30 h in U-937, U-937/Bcl-2, 40 h in MOLT-3 and NALM-6, and several days in SK-MEL-1 cells. Human peripheral blood mononuclear cells (PBMC) were isolated from heparin-anticoagulated blood of healthy volunteers by centrifugation with Ficoll-Paque Plus (GE Healthcare Bio-Sciences AB, Uppsala, Sweden). PBMC were also stimulated with phytohemagglutinin (2 µg/mL) for 48 h before the experimental treatment. The trypan blue exclusion method was used for counting the cells by a hemocytometer with 95% viability in all the experiments. Compounds were dissolved in dimethyl sulfoxide (DMSO) and kept under dark conditions at 25 °C. […] The cytotoxicity of the synthetic compounds was evaluated by colorimetric 3-(4,5-dimethyl-2-thiazolyl-)-2,5-diphenyl-2H-tetrazolium bromide (MTT) assay as previously described. Briefly, cells (5000 per well) were incubated with increasing concentrations of compounds for 72 h into a 96-well plate. Then, the supernatants were removed and 0.5 mg/mL MTT was added and incubated for 4 h at 37 °C. Sodium dodecyl sulfate (10% w/v) in 0.05 M HCl was added to solubilize the reaction products and the absorbance was measured at 570 nm with a reference wavelength of […] using an ELISA reader (Bio-Rad, Hercules, CA, USA). The IC50 values (concentrations inducing a 50% inhibition of cell viability) were determined graphically for each experiment by a nonlinear regression using the curve fitting routine implemented within the software Prism 5.0 (GraphPad, La Jolla, CA, USA).
(§2) Cells (2.5 × 10^5) were centrifuged for 10 min at 500× g, washed with cold PBS, fixed with ice-cold 75% ethanol and stored at −20 °C overnight. Samples were then centrifuged at 500× g for 10 min at 4 °C, washed with PBS, resuspended in 200 μL of PBS containing 100 μg/mL RNase and 50 μg/mL propidium iodide and incubated for 1 h in the dark. The DNA content was analyzed by flow cytometry with a BD FACSVerse^TM cytometer (BD Biosciences, San Jose, CA, USA). Apoptosis was also evaluated by flow cytometric analysis of double-staining annexin V-FITC and propidium iodide cells as previously described.

[2] = test system: U-937 leukemia cells; assay: Cell cycle and sub-G1 analysis by flow cytometry (propidium iodide); type: cell-based, human; conditions: 24 h; for fold increase of sub-G1 cells over control / %G1 / %G2-M / %S / %Sub-G1: 10 µM; for fold increase of sub-G1 cells over control: U-937; for %G1 / %G2-M / %S / %Sub-G1: U-937, means ± S.E.; for cell cycle arrest: U-937, 10 µM
Method: as §2

[3] = test system: human peripheral blood mononuclear cells (PBMC); assay: Cell viability of quiescent and PHA-activated PBMC; type: cell-based; conditions: up to 10 µM, 24 h
Source text: U-937, HL-60, MOLT-3, NALM-6, and SK-MEL-1 cells were from DSMZ (German Collection of Microorganisms and Cell Cultures, Braunschweig, Germany). U-937/Bcl-2 cells were kindly provided by Dr. Jacqueline Bréard (INSERM U749, Faculté de Pharmacie Paris-Sud, Châtenay-Malabry, France). The U-937 is a pro-monocytic, human promyelocytic leukemia cell line that was isolated from a histiocytic lymphoma. HL-60 is a human acute myeloid leukemia cell line. MOLT-3 is a human acute lymphoblastic leukemia cell line. NALM-6 is a human B cell precursor leukemia. SK-MEL-1 is a human melanoma cell line growing singly or in clumps (occasional giant, polynucleated cell) in suspension. […] The cytotoxicity of the synthetic compounds was evaluated by colorimetric 3-(4,5-dimethyl-2-thiazolyl-)-2,5-diphenyl-2H-tetrazolium bromide (MTT) assay as previously described. […] Sodium dodecyl sulfate (10% w/v) in 0.05 M HCl was added to solubilize the reaction products and the absorbance was measured at 570 nm with a reference wavelength of […] using an ELISA reader (Bio-Rad, Hercules, CA, USA). […]
Figure 2 (a) Dose-response study of hybrid chalcone–guanidines on human U-937 leukemia cell viability. Cells were cultured in the presence of increasing concentrations of selected guanidines for 72 h, and thereafter cell viability was determined by the MTT assay. […]

[4] = test system: U-937/Bcl-2 cells; assay: MTT cytotoxicity assay, U-937/Bcl-2; type: cell-based, human; conditions: means ± SEM
Source text: as §1

Compound	annexin V-FITC positive cells with respect to control [1]	fold increase of annexin V-FITC positive cells with respect to control [1] [fold]	annexin V-FITC positive cells [1] [%]	fold increase of sub-G1 cells over control [2]	%G1 [2] [%]	%G2-M [2] [%]	%S [2] [%]	%Sub-G1 [2]	cell cycle arrest [2]	cytotoxicity against proliferating and quiescent lymphocytes (PBMC) versus U-937 [3]	IC50 ([4]; Homo sapiens, U-937, 72 h) [µM]	IC50 ([4]; 72 h) [µM]
Cc1ccc(S(=O)(=O)NC(=Nc2ccc(/C=C/C(=O)c3c(O)cccc3OCc3ccccc3)cc2)N2CCN(C)CC2)cc1 [Compound 6f]	hardly increased	3	27	~ 10 fold	35.2 ± 3.8	10.8 ± 1.6	28.3 ± 0.2	25.1% and 25.1 ± 2.6 %	not caused by a significant cell cycle arrest in any phase	lower cytotoxicity	2.2 ± 0.8	–
O=C(/C=C/c1ccc(N=C(Nc2ccccc2)N2CCCCC2)cc1)c1c(O)cccc1OCc1ccccc1 [Compound 6i]	hardly increased	1.4	13	~ 13 fold	35.9 ± 2.1	8.4 ± 0.1	23.6 ± 2.4	31.6% and 31.6 ± 4.5 %	not caused by a significant cell cycle arrest in any phase	lower cytotoxicity	< 10	5.1 ± 1.8
